The target in assay [1] is T1, WEE1 (Homo sapiens, UniProt P30291+Q96SW2).
T1 construct: C-terminal ePL-tagged (DiscoverX, Fremont, CA) full-length WEE1 expression construct; expressed in transfected cells; host or cells: LentiX-HEK293T (Invitrogen), lentiviral transduction; co-expressing GSPT1-GN (G576N, lacking the first 158 amino acids)
Kind of assay: WEE1-ePL degradation assay (LentiX-WEE1-ePL-GSPT1-ND cells, InCELL Hunter luminescence, 4 h). The class given is cell-based. The following applies: 293T-LentiX WEE1-ePL cells; for DC50: read-out: 293T-LentiX WEE1-ePL Degradation 4 hr (EC50). In a few lines: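 Luminescent readout (InCELL Hunter, 30 min RT) of WEE1-ePL levels in transduced HEK293T cells after 4 h compound exposure at 37 °C. Dosing: 10 points, 3-fold steps, top 1 uM or 10 uM. EC50 from four-parameter logistic fit; Ymax set by DMSO.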

The subject of assay [2] is MKN45 cells. Kind of assay: MKN45 cell proliferation assay (Cell-Titer-Glo, 120 h). The assay is classed as cell-based. The following applies: for EC50: Homo sapiens, MKN-45, 120 h, Cell-Titer-Glo, read-out: MKN45 Cell Prolif. 120 hr (EC50); for MKN45 Cell Prolif. 120 hr (Ymin-Obs): minimal percent of DMSO control observed in the concentrations tested. In a few lines:
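Cells seeded at 400/well onto pre-printed 10-point half-log dilutions (top 1 or 10 uM, 0.1% DMSO final), in triplicate, and grown 120 h at 37 C. Viability by Cell-Titer-Glo luminescence, blank-subtracted and normalised to DMSO; EC50 from four-parameter logistic fit, with observed minimal % of control recorded as Ymin-obs.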

Where [3] appears, read: lower limit of the fit (Ymin=0 luciferase inhibitor, Ymax DMSO control).
The mark [4] stands for this setting: lower limit of the fit (0 = luciferase inhibitor, Ymax = DMSO control).

Like-named read-outs stand apart in the source and are kept apart here.

The term EC50 denotes the concentration needed to bring the measured effect to its halfway point. `CC1(C)C[C@H](c2ccc3cc(CN4CC[C@H](Oc5ccc6c(c5)CN([C@H]5CCC(=O)NC5=O)C6=O)C4)ncc3c2)CCO1` [(3S)-3-(5-{[(3S)-1-({7-[(4R)-2,2-dimethyloxan-4-yl]isoquinolin-3-yl}methyl)pyrrolidin-3-yl]oxy}-1-oxo-2,3-dihydro-1H-isoindol-2-yl)piperidine-2,6-dione]: the “293T-LentiX WEE1-ePL Degradation 4 hr (Ymin)” value in assay [1] (setting [3]) is 24.44. Moreover, the DC50 in assay [1] turned out to be 1.09 nM. Also, in assay [2], the EC50 was found to be 0.593 nM and the “MKN45 Cell Prolif. 120 hr (Ymin-Obs)” value turned out to be 9.482.

Consider `CC1(C)C[C@@H](c2ccc3cc(CN4CC[C@H](Oc5ccc6c(c5)CN([C@H]5CCC(=O)NC5=O)C6=O)C4)ncc3c2)CCO1` [(3S)-3-(5-{[(3S)-1-({7-[(4S)-2,2-dimethyloxan-4-yl]isoquinolin-3-yl}methyl)pyrrolidin-3-yl]oxy}-1-oxo-2,3-dihydro-1H-isoindol-2-yl)piperidine-2,6-dione], for which the “293T-LentiX WEE1-ePL Degradation 4 hr (Ymin)” value in assay [1] (setting [3]) is 26.79. Also, the DC50 in assay [1] worked out at 1.19 nM. For the same molecule, in assay [2], the EC50 worked out at 1.11 nM and the “MKN45 Cell Prolif. 120 hr (Ymin-Obs)” value is listed as 9.866.

In the case of `O=C1CC[C@H](N2Cc3cc(O[C@H]4CCN(Cc5cc(F)c6nc([C@H]7CCOC7)ccc6c5)C4)ccc3C2=O)C(=O)N1` [(3S)-3-(5-{[(3S)-1-({8-fluoro-2-[(3R)-oxolan-3-yl]quinolin-6-yl}methyl)pyrrolidin-3-yl]oxy}-1-oxo-2,3-dihydro-1H-isoindol-2-yl)piperidine-2,6-dione], in assay [1] (setting [3]), the “293T-LentiX WEE1-ePL Degradation 4 hr (Ymin)” value was 34.39. Moreover, in assay [1], the DC50 is 1.34 nM. Besides, in assay [2], the EC50 is 1.02 nM and the “MKN45 Cell Prolif. 120 hr (Ymin-Obs)” value is reported as 9.528.

Take `O=C1CC[C@H](N2Cc3cc(O[C@H]4CCN(Cc5cc(F)c6nc([C@@H]7CCOC7)ccc6c5)C4)ccc3C2=O)C(=O)N1` [(3S)-3-(5-{[(3S)-1-({8-fluoro-2-[(3S)-oxolan-3-yl]quinolin-6-yl}methyl)pyrrolidin-3-yl]oxy}-1-oxo-2,3-dihydro-1H-isoindol-2-yl)piperidine-2,6-dione]: in assay [1] (setting [3]), the “293T-LentiX WEE1-ePL Degradation 4 hr (Ymin)” value was 34.19. Also, the DC50 in assay [1] was determined as 1.73 nM. Further, in assay [2], the concentration giving a half-maximal response (EC50) came to 1.45 nM and the “MKN45 Cell Prolif. 120 hr (Ymin-Obs)” value is recorded as 9.273.

For `CC(=O)N1CCC(c2ncc3cc(CN4CC[C@H](Oc5ccc6c(c5)CN([C@H]5CCC(=O)NC5=O)C6=O)C4)ccc3n2)CC1` [(3S)-3-(5-{[(3S)-1-{[2-(1-acetylpiperidin-4-yl)quinazolin-6-yl]methyl}pyrrolidin-3-yl]oxy}-1-oxo-2,3-dihydro-1H-isoindol-2-yl)piperidine-2,6-dione], the “293T-LentiX WEE1-ePL Degradation 4 hr (Ymin)” value in assay [1] (setting [3]) is 36.09. Further, the DC50 in assay [1] turned out to be 35.8 nM. In assay [2], the EC50 was 13.8 nM and the “MKN45 Cell Prolif. 120 hr (Ymin-Obs)” value was 9.035.

As for `CC(=O)N1CCC(c2ccc3cc(CN4CC[C@H](Oc5ccc6c(c5)CN([C@H]5CCC(=O)NC5=O)C6=O)C4)ccc3n2)CC1` [(3S)-3-(5-{[(3S)-1-{[2-(1-acetylpiperidin-4-yl)quinolin-6-yl]methyl}pyrrolidin-3-yl]oxy}-1-oxo-2,3-dihydro-1H-isoindol-2-yl)piperidine-2,6-dione], the “293T-LentiX WEE1-ePL Degradation 4 hr (Ymin)” value in assay [1] (setting [3]) is 36.62. Further, the DC50 in assay [1] came out at 10.1 nM. In addition, in assay [2], the EC50 stood at 11.8 nM and the “MKN45 Cell Prolif. 120 hr (Ymin-Obs)” value is 10.38.

Regarding `CC(C)(O)c1ccc2cc(CN3CC[C@H](Oc4ccc5c(c4)CN([C@H]4CCC(=O)NC4=O)C5=O)C3)ccc2n1` [(3S)-3-(5-{[(3S)-1-{[2-(2-hydroxypropan-2-yl)quinolin-6-yl]methyl}pyrrolidin-3-yl]oxy}-1-oxo-2,3-dihydro-1H-isoindol-2-yl)piperidine-2,6-dione], the “293T-LentiX WEE1-ePL Degradation 4 hr (Ymin)” value in assay [1] (setting [4]) was determined as 33.92. Besides, the DC50 in assay [1] came to 1.69 nM. For the same molecule, the EC50 in assay [2] (growth inhibition) came to 10.1 nM. In assay [2], the “MKN45 Cell Prolif. 120 hr (Ymin-Obs)” value was 12.89.

Consider `CC(=O)N1CCN(c2ncc3cc(CN4CC[C@H](Oc5ccc6c(c5)CN([C@H]5CCC(=O)NC5=O)C6=O)C4)ccc3n2)CC1` [(3S)-3-(5-{[(3S)-1-{[2-(4-acetylpiperazin-1-yl)quinazolin-6-yl]methyl}pyrrolidin-3-yl]oxy}-1-oxo-2,3-dihydro-1H-isoindol-2-yl)piperidine-2,6-dione], for which the “293T-LentiX WEE1-ePL Degradation 4 hr (Ymin)” value in assay [1] (setting [3]) was determined as 39.39. In addition, the DC50 in assay [1] is 9.27 nM. Moreover, in assay [2], the EC50 came to 8.63 nM and the “MKN45 Cell Prolif. 120 hr (Ymin-Obs)” value was 9.801.

For the molecule `CC(=O)N1CCN(c2ccc3cc(CN4CC[C@H](Oc5ccc6c(c5)CN([C@H]5CCC(=O)NC5=O)C6=O)C4)ccc3n2)CC1` [(3S)-3-(5-{[(3S)-1-{[2-(4-acetylpiperazin-1-yl)quinolin-6-yl]methyl}pyrrolidin-3-yl]oxy}-1-oxo-2,3-dihydro-1H-isoindol-2-yl)piperidine-2,6-dione], in assay [1] (setting [3]), the “293T-LentiX WEE1-ePL Degradation 4 hr (Ymin)” value is given as 40.44. Also, the DC50 in assay [1] was 1.69 nM. Further, in assay [2], the EC50 was 9.94 nM and the “MKN45 Cell Prolif. 120 hr (Ymin-Obs)” value is on record as 17.95.

For `CN1CCN(c2ncc3cc(CN4CC[C@H](Oc5ccc6c(c5)CN([C@H]5CCC(=O)NC5=O)C6=O)C4)ccc3n2)CC1` [(3S)-3-(5-{[(3S)-1-{[2-(4-methylpiperazin-1-yl)quinazolin-6-yl]methyl}pyrrolidin-3-yl]oxy}-1-oxo-2,3-dihydro-1H-isoindol-2-yl)piperidine-2,6-dione], the “293T-LentiX WEE1-ePL Degradation 4 hr (Ymin)” value in assay [1] (setting [3]) is reported as 37.97. The DC50 in assay [1] came out at 11.1 nM. In assay [2], the EC50 amounted to 15.2 nM and the “MKN45 Cell Prolif. 120 hr (Ymin-Obs)” value came out at 12.23.

In the case of `O=C1CC[C@H](N2Cc3cc(O[C@H]4CCN(Cc5ccc6nc(N7CCC7)ncc6c5)C4)ccc3C2=O)C(=O)N1` [(3S)-3-(5-{[(3S)-1-{[2-(azetidin-1-yl)quinazolin-6-yl]methyl}pyrrolidin-3-yl]oxy}-1-oxo-2,3-dihydro-1H-isoindol-2-yl)piperidine-2,6-dione], in assay [1] (setting [3]), the “293T-LentiX WEE1-ePL Degradation 4 hr (Ymin)” value was found to be 45.2. Also, in assay [1], the DC50 was determined as 12.1 nM. Besides, in assay [2], the EC50 worked out at 33.8 nM and the “MKN45 Cell Prolif. 120 hr (Ymin-Obs)” value is 31.75.

In the case of `O=C1CC[C@H](N2Cc3cc(O[C@H]4CCN(Cc5cc(C(F)(F)F)c6nc(N7CCOCC7)ncc6c5)C4)ccc3C2=O)C(=O)N1` [(3S)-3-(5-{[(3S)-1-{[2-(morpholin-4-yl)-8-(trifluoromethyl)quinazolin-6-yl]methyl}pyrrolidin-3-yl]oxy}-1-oxo-2,3-dihydro-1H-isoindol-2-yl)piperidine-2,6-dione], the “293T-LentiX WEE1-ePL Degradation 4 hr (Ymin)” value in assay [1] (setting [3]) was determined as 33.06. The DC50 in assay [1] was 1.8 nM. Besides, in assay [2], the EC50 amounted to 8.91 nM and the “MKN45 Cell Prolif. 120 hr (Ymin-Obs)” value is on record as 3.502.

For the molecule `O=C1CC[C@H](N2Cc3cc(O[C@H]4CCN(Cc5ccc6nc(N7CCOCC7)ncc6c5)C4)ccc3C2=O)C(=O)N1` [(3S)-3-(5-{[(3S)-1-{[2-(morpholin-4-yl)quinazolin-6-yl]methyl}pyrrolidin-3-yl]oxy}-1-oxo-2,3-dihydro-1H-isoindol-2-yl)piperidine-2,6-dione], the “293T-LentiX WEE1-ePL Degradation 4 hr (Ymin)” value in assay [1] (setting [4]) is on record as 34. In addition, the DC50 in assay [1] turned out to be 7.36 nM. For the same molecule, in assay [2] (growth inhibition), the EC50 came out at 11.7 nM. The “MKN45 Cell Prolif. 120 hr (Ymin-Obs)” value in assay [2] was determined as 11.86.

As to `O=C1CC[C@H](N2Cc3cc(O[C@H]4CCN(Cc5ccc6nc(N7CCOCC7)ccc6c5)C4)ccc3C2=O)C(=O)N1` [(3S)-3-(5-{[(3S)-1-{[2-(morpholin-4-yl)quinolin-6-yl]methyl}pyrrolidin-3-yl]oxy}-1-oxo-2,3-dihydro-1H-isoindol-2-yl)piperidine-2,6-dione], in assay [1] (setting [4]), the “293T-LentiX WEE1-ePL Degradation 4 hr (Ymin)” value was 34.59. The DC50 in assay [1] worked out at 1.83 nM. The EC50 in assay [2] (growth inhibition) was found to be 9.71 nM. Further, in assay [2], the “MKN45 Cell Prolif. 120 hr (Ymin-Obs)” value was determined as 14.56.

On to `O=C1CC[C@H](N2Cc3cc(O[C@H]4CCN(Cc5cc(C6COC6)c6nc(C7CCOCC7)ccc6c5)C4)ccc3C2=O)C(=O)N1` [(3S)-3-(5-{[(3S)-1-{[2-(oxan-4-yl)-8-(oxetan-3-yl)quinolin-6-yl]methyl}pyrrolidin-3-yl]oxy}-1-oxo-2,3-dihydro-1H-isoindol-2-yl)piperidine-2,6-dione], for which the “293T-LentiX WEE1-ePL Degradation 4 hr (Ymin)” value in assay [1] (setting [3]) was determined as 88.43. Further, in assay [2], the EC50 was 2.94 nM and the “MKN45 Cell Prolif. 120 hr (Ymin-Obs)” value is reported as 96.91.

As for `O=C1CC[C@H](N2Cc3cc(O[C@H]4CCN(Cc5cc(C(F)(F)F)c6nc(C7CCOCC7)ccc6c5)C4)ccc3C2=O)C(=O)N1` [(3S)-3-(5-{[(3S)-1-{[2-(oxan-4-yl)-8-(trifluoromethyl)quinolin-6-yl]methyl}pyrrolidin-3-yl]oxy}-1-oxo-2,3-dihydro-1H-isoindol-2-yl)piperidine-2,6-dione], in assay [1] (setting [3]), the “293T-LentiX WEE1-ePL Degradation 4 hr (Ymin)” value worked out at 42.83. Moreover, in assay [1], the DC50 was 2.48 nM. In assay [2], the concentration for a half-maximal effect (EC50) was 2.99 nM and the “MKN45 Cell Prolif. 120 hr (Ymin-Obs)” value was 2.25.

`O=C1CC[C@H](N2Cc3cc(O[C@H]4CCN(Cc5ccc6nc(C7CCOCC7)ncc6c5)C4)ccc3C2=O)C(=O)N1` [(3S)-3-(5-{[(3S)-1-{[2-(oxan-4-yl)quinazolin-6-yl]methyl}pyrrolidin-3-yl]oxy}-1-oxo-2,3-dihydro-1H-isoindol-2-yl)piperidine-2,6-dione]: the “293T-LentiX WEE1-ePL Degradation 4 hr (Ymin)” value in assay [1] (setting [4]) was 32.12. Moreover, in assay [1], the DC50 came to 75 nM. Besides, the EC50 in assay [2] (growth inhibition) was determined as 29.3 nM. The “MKN45 Cell Prolif. 120 hr (Ymin-Obs)” value in assay [2] was 9.327.

(Values after patent US20240067632A1, “WEE1 Degrading Compounds and Uses Thereof” (Bristol-Myers Squibb Company, priority 2022, published 2024).)
